Experimental data reported in patent US11083707B2, “Substituted indoline derivatives as dengue viral replication inhibitors” (JANSSEN PHARMACEUTICALS, INC., priority 2017, dated 2021).

How the values were obtained:
DENV-2 16681 strain = assay: DENV-2 antiviral assay (eGFP fluorescence, Vero cells); format: cell-based, Dengue virus; details: DENV-2 16681 eGFP, MOI 0.5, 3 days
Procedure: The antiviral activity of all the compounds of the invention was tested against the DENV-2 16681 strain which was labeled with enhanced green fluorescent protein (eGPF). The culture medium consists of minimal essential medium supplemented with 2% of heat-inactivated fetal calf serum, 0.04% gentamycin (50 mg/mL) and 2 mM of L-glutamine. Vero cells, obtained from ECACC, were suspended in culture medium and 25 μL was added to 384-well plates (2500 cells/well), which already contain the antiviral compounds. Typically, these plates contain a 5-fold serial dilution of 9 dilution steps of the test compound at 200 times the final concentration in 100% DMSO (200 nL). […] Finally, each plate contains wells which are assigned as virus controls (containing cells and virus in the absence of compound), cell controls (containing cells in the absence of virus and compound) and medium controls (containing medium in the absence of cells, virus and compounds). To the wells assigned as medium control, 25 μL of culture medium was added instead of Vero cells. Once the cells were added to the plates, the plates were incubated for 30 minutes at room temperature to allow the cells to distribute evenly within the wells. Next, the plates were incubated in a fully humidified incubator (37° C., 5% CO2) until the next day. Then, DENV-2 strain 16681, labeled with eGFP, was added at a multiplicity of infection (MOI) of 0.5. Therefore, 15 μL of virus suspension was added to all the wells containing test compound and to the wells assigned as virus control. In parallel, 15 μL of culture medium was added to the medium and cell controls. Next, the plates were incubated for 3 days in a fully humidified incubator (37° C., 5% CO2). At the day of the read out, the eGFP fluorescence was measured using an automated fluorescence microscope at 488 nm (blue laser). Using an in-house LIMS system, inhibition dose response curves for each compound were calculated and the half maximal effective concentration (EC50) was determined. Therefore, the percent inhibition (I) for every test concentration is calculated using the following formula: I=100*(ST-SCC)/(SVC-SCC), ST, SCC and SVC are the amount of eGFP signal in the test compound, cell control and virus control wells, respectively. The EC50 represents the concentration of a compound at which the virus replication is inhibited with 50%, as measured by a 50% reduction of the eGFP fluorescent intensity compared to the virus control. The EC50 is calculated using linear interpolation (Table 1).

in vitro = details: African green monkey
Vero cells = details: African green monkey
[1] = Dengue virus, DENV2, Vero, 72 h

| Structure (SMILES) | EC50 (DENV-2 16681 strain; [1]) [µM] | CC50 (in vitro) [µM] | EC50 (DENV-2 16681 strain) [µM] | CC50 (Vero cells) [µM] |
| --- | --- | --- | --- | --- |
| COc1cc(NC(C(=O)N2CCc3c(C)cc(OC(F)(F)F)cc32)c2ccc(Cl)cc2OCCO)cc(-n2cncn2)c1 (racemic) [Compound 10, 2-(4-chloro-2-(2-hydroxyethoxy)phenyl)-2-((3-methoxy-5-(1H-1,2,4-triazol-1-yl)phenyl)amino)-1-(4-methyl-6-(trifluoromethoxy)indolin-1-yl)ethanone] | 0.00035 | 10 | – | – |
| COc1cc(NC(C(=O)N2CCc3cc(OC)c(C(F)(F)F)cc32)c2ccc(F)cc2OCCO)cc(-n2cncn2)c1 (single isomer, unassigned) [Compound 2A] | – | 12 | 0.27 | – |
| COc1cc(NC(C(=O)N2CCc3cc(OC)c(C(F)(F)F)cc32)c2ccc(Cl)cc2OCCCC(=O)O)cc(-n2cncn2)c1 (single isomer, unassigned) [Compound 12B] | – | – | 0.32 | 12 |
| COc1cc(NC(C(=O)N2CCc3c(C)cc(OC(F)(F)F)cc32)c2ccc(Cl)cc2OCCCC(=O)O)cc(-n2cncn2)c1 (single isomer, unassigned) [Compound 16A] | – | 11 | 0.014 | – |
| COc1cc(NC(C(=O)N2CCc3ccc(C(F)(F)F)cc32)c2ccc(Cl)cc2OCCO)cc(-n2cncn2)c1 (single isomer, unassigned) [Compound 4A] | – | 7.8 | 1.2 | – |
| COc1cc(NC(C(=O)N2CCc3ccc(C(F)(F)F)cc32)c2ccc(F)cc2OCCO)cc(-n2cncn2)c1 (single isomer, unassigned) [Compound 1A] | – | 7.7 | 1 | – |
| COc1cc(NC(C(=O)N2CCc3cc(F)c(OC(F)(F)F)cc32)c2ccc(Cl)cc2OCCO)cc(-n2cncn2)c1 (racemic) [Compound 9, 2-(4-chloro-2-(2-hydroxyethoxy)phenyl)-1-(5-fluoro-6-(trifluoromethoxy)indolin-1-yl)-2-((3-methoxy-5-(1H-1,2,4-triazol-1-yl)phenyl)amino)ethanone] | 0.0016 | 3.9 | – | – |
| COc1cc(NC(C(=O)N2CCc3cc(F)c(OC(F)(F)F)cc32)c2ccc(Cl)cc2OCCCC(=O)O)cc(-n2cncn2)c1 (single isomer, unassigned) [Compound 15A] | – | 10 | 0.0053 | – |
| COc1cc(NC(C(=O)N2CCc3cc(OC)c(C(F)(F)F)cc32)c2ccc(F)cc2OCCO)cc(-n2cncn2)c1 (racemic) [Compound 2, 2-(4-fluoro-2-(2-hydroxyethoxy)phenyl)-2-((3-methoxy-5-(1H-1,2,4-triazol-1-yl)phenyl)amino)-1-(5-methoxy-6-(trifluoromethyl)indolin-1-yl)ethanone] | 0.0028 | 13 | – | – |
| COc1cc(NC(C(=O)N2CCc3cc(F)c(OC(F)(F)F)cc32)c2ccc(Cl)cc2OCCCC(=O)O)cc(-n2cncn2)c1 (racemic) [Compound 15, 4-(5-chloro-2-(2-(5-fluoro-6-(trifluoromethoxy)indolin-1-yl)-1-((3-methoxy-5-(1H-1,2,4-triazol-1-yl)phenyl)amino)-2-oxoethyl)phenoxy)butanoic acid] | 0.00022 | 11 | – | – |
| COc1cc(NC(C(=O)N2CCc3ccc(OC(F)(F)F)cc32)c2ccc(Cl)cc2OCCC(C)(C)C(=O)O)cc(-n2cncn2)c1 (racemic) [Compound 14, 4-(5-chloro-2-(1-((3-methoxy-5-(1H-1,2,4-triazol-1-yl)phenyl)amino)-2-oxo-2-(6-(trifluoromethoxy)indolin-1-yl)ethyl)phenoxy)-2,2-dimethylbutanoic acid] | 0.00041 | 10 | – | – |
| COc1cc(NC(C(=O)N2CCc3ccc(OC(F)(F)F)cc32)c2ccc(F)cc2OCCO)cc(-n2cncn2)c1 (single isomer, unassigned) [Compound 3A] | – | 11 | 0.52 | – |
| COc1cc(NC(C(=O)N2CCc3cc(OC)c(C(F)(F)F)cc32)c2ccc(Cl)cc2OCCCC(=O)O)cc(-n2cncn2)c1 (racemic) [Compound 12, 4-(5-chloro-2-(1-((3-methoxy-5-(1H-1,2,4-triazol-1-yl)phenyl)amino)-2-(5-methoxy-6-(trifluoromethyl)indolin-1-yl)-2-oxoethyl)phenoxy)butanoic acid] | 0.0022 | 13 | – | – |
| COc1cc(NC(C(=O)N2CCc3cc(F)c(C(F)(F)F)cc32)c2ccc(Cl)cc2OCCO)cc(-n2cncn2)c1 (racemic) [Compound 7, 2-(4-chloro-2-(2-hydroxyethoxy)phenyl)-1-(5-fluoro-6-(trifluoromethyl)indolin-1-yl)-2-((3-methoxy-5-(1H-1,2,4-triazol-1-yl)phenyl)amino)ethanone] | 0.003 | 10 | – | – |
| COc1cc(NC(C(=O)N2CCc3cc(F)c(C(F)(F)F)cc32)c2ccc(Cl)cc2OCCO)cc(-n2cncn2)c1 (single isomer, unassigned) [Compound 7A] | – | 11 | 0.43 | – |
| COc1cc(NC(C(=O)N2CCc3ccc(C(F)(F)F)cc32)c2ccc(Cl)cc2OCCCC(=O)O)cc(-n2cncn2)c1 (single isomer, unassigned) [Compound 11A] | – | 11 | 0.045 | – |
| COc1cc(NC(C(=O)N2CCc3ccc(C(F)(F)F)cc32)c2ccc(F)cc2OCCO)cc(-n2cncn2)c1 (racemic) [Compound 1, 2-(4-fluoro-2-(2-hydroxyethoxy)phenyl)-2-((3-methoxy-5-(1H-1,2,4-triazol-1-yl)phenyl)amino)-1-(6-(trifluoromethyl)indolin-1-yl)ethanone] | 0.0031 | 12 | – | – |
| COc1cc(NC(C(=O)N2CCc3ccc(OC(F)(F)F)cc32)c2ccc(Cl)cc2OCCCC(=O)O)cc(-n2cncn2)c1 (racemic) [Compound 13, 4-(5-chloro-2-(1-((3-methoxy-5-(1H-1,2,4-triazol-1-yl)phenyl)amino)-2-oxo-2-(6-(trifluoromethoxy)indolin-1-yl)ethyl)phenoxy)butanoic acid] | 0.00023 | 11 | – | – |
| COc1cc(NC(C(=O)N2CCc3ccc(C(F)(F)F)cc32)c2ccc(Cl)cc2OCCCC(=O)O)cc(-n2cncn2)c1 (racemic) [Compound 11, 4-(5-chloro-2-(1-((3-methoxy-5-(1H-1,2,4-triazol-1-yl)phenyl)amino)-2-oxo-2-(6-(trifluoromethyl)indolin-1-yl)ethyl)phenoxy)butanoic acid] | 0.00031 | 15 | – | – |
| COc1cc(NC(C(=O)N2CCc3ccc(OC(F)(F)F)cc32)c2ccc(F)cc2OCCO)cc(-n2cncn2)c1 (racemic) [Compound 3, 2-(4-fluoro-2-(2-hydroxyethoxy)phenyl)-2-((3-methoxy-5-(1H-1,2,4-triazol-1-yl)phenyl)amino)-1-(6-(trifluoromethoxy)indolin-1-yl)ethanone] | 0.0019 | 8.5 | – | – |
| COc1cc(NC(C(=O)N2CCc3ccc(OC(F)(F)F)cc32)c2ccc(Cl)cc2OCCC(C)(C)C(=O)O)cc(-n2cncn2)c1 (single isomer, unassigned) [Compound 14A] | – | 9.1 | 0.42 | – |
| COc1cc(NC(C(=O)N2CCc3c(C)cc(OC(F)(F)F)cc32)c2ccc(Cl)cc2OCCO)cc(-n2cncn2)c1 (single isomer, unassigned) [Compound 10A] | – | 10 | 0.063 | – |
| COc1cc(NC(C(=O)N2CCc3ccc(OC(F)(F)F)cc32)c2ccc(Cl)cc2OCCO)cc(-n2cncn2)c1 (racemic) [Compound 6, 2-(4-chloro-2-(2-hydroxyethoxy)phenyl)-2-((3-methoxy-5-(1H-1,2,4-triazol-1-yl)phenyl)amino)-1-(6-(trifluoromethoxy)indolin-1-yl)ethanone] | 0.00097 | 3.3 | – | – |
| COc1cc(NC(C(=O)N2CCc3cc(OC)c(C(F)(F)F)cc32)c2ccc(Cl)cc2OCCO)cc(-n2cncn2)c1 (racemic) [Compound 5, 2-(4-chloro-2-(2-hydroxyethoxy)phenyl)-2-((3-methoxy-5-(1H-1,2,4-triazol-1-yl)phenyl)amino)-1-(5-methoxy-6-(trifluoromethyl)indolin-1-yl)ethanone] | 0.00082 | 11 | – | – |
| COc1cc(NC(C(=O)N2CCc3cc(OC)c(C(F)(F)F)cc32)c2ccc(Cl)cc2OCCO)cc(-n2cncn2)c1 (single isomer, unassigned) [Compound 5A] | – | 11 | 0.042 | – |
| COc1cc(NC(C(=O)N2CCc3cc(OC)c(OC(F)(F)F)cc32)c2ccc(Cl)cc2OCCO)cc(-n2cncn2)c1 (racemic) [Compound 8, 2-(4-chloro-2-(2-hydroxyethoxy)phenyl)-2-((3-methoxy-5-(1H-1,2,4-triazol-1-yl)phenyl)amino)-1-(5-methoxy-6-(trifluoromethoxy)indolin-1-yl)ethanone] | 0.0021 | 9.5 | – | – |
